Assay results: ChEMBL document CHEMBL3991601, “The target landscape of clinical kinase drugs” (Science, 2017)
Counter-ions that a name gives are not always drawn. Active and inactive are the calls of the source. Cut-off read from the data, not from the text of the source, for most assays here: actives have a measured Kd and inactives only a lower limit.

Key:
[1] = target: Tyrosine-protein kinase Yes (Homo sapiens, UniProt P07947)
[2] = target: T1, Mitogen-activated protein kinase kinase kinase 5 (Homo sapiens, UniProt Q99683)
T1 sequence (Q99683 whole entry): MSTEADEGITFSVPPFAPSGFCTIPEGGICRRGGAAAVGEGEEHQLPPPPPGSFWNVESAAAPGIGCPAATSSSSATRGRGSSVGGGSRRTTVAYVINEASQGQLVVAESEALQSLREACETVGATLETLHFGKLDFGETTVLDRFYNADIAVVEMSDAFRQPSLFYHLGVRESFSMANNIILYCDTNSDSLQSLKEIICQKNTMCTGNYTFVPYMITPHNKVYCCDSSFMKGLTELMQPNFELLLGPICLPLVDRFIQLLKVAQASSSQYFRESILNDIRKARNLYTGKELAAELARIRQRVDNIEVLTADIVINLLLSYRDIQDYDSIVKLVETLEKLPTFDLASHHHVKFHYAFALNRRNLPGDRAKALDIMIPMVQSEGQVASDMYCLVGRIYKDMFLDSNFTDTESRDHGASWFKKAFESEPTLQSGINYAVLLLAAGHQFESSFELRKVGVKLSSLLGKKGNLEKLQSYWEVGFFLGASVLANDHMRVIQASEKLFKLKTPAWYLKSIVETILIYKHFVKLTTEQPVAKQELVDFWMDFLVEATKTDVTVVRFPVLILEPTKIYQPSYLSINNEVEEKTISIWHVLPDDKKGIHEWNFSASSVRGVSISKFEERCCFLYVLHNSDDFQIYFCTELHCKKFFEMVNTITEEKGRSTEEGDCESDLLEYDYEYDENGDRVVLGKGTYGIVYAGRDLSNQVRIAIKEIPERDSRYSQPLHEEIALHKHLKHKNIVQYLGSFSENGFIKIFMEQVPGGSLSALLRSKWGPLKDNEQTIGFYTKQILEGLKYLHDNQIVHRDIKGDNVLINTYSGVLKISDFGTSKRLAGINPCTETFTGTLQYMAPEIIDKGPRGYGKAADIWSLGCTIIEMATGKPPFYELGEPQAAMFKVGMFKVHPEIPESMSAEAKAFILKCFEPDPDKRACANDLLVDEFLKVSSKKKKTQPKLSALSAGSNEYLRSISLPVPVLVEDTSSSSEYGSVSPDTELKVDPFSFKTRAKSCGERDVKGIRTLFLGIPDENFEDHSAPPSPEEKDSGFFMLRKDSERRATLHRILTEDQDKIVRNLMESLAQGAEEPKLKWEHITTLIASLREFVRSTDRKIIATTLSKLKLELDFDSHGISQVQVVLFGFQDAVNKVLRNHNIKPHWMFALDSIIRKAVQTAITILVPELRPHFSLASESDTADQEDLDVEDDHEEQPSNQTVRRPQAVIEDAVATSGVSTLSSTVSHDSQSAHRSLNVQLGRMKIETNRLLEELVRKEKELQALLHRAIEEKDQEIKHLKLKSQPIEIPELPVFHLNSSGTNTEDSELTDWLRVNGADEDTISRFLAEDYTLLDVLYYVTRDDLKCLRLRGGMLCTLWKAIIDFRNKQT

[3] = target: Mitotic checkpoint serine/threonine-protein kinase BUB1 (Homo sapiens, UniProt O43683)
[4] = target: Dual specificity mitogen-activated protein kinase kinase 2 (Homo sapiens, UniProt P36507)
[5] = target: U5 small nuclear ribonucleoprotein 200 kDa helicase (Homo sapiens, UniProt O75643)
Focal adhesion kinase 1 = Focal adhesion kinase 1 (Homo sapiens, UniProt Q05397)
Activin receptor type-1B = target: T2, Activin receptor type-1B (Homo sapiens, UniProt P36896)
T2 sequence (P36896 whole entry): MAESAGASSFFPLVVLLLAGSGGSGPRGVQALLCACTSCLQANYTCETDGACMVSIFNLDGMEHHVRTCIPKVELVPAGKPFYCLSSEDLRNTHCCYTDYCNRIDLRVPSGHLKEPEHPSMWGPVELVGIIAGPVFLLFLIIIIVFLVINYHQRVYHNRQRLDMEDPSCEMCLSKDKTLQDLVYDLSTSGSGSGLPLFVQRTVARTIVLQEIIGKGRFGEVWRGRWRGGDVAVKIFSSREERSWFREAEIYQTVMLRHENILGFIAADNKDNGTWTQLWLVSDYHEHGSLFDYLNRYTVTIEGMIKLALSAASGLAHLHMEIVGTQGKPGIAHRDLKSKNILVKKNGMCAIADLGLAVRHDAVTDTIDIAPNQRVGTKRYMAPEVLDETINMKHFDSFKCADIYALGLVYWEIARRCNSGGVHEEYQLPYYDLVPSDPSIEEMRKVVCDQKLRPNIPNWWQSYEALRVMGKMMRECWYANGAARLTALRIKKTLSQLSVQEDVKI

[6] = target: Phosphatidylethanolamine-binding protein 1 (Homo sapiens, UniProt P30086)
Note: in the data inactive means no Kd found up to 30 µM.

U5 small nuclear ribonucleoprotein 200 kDa helicase, sequence (O75643 whole entry): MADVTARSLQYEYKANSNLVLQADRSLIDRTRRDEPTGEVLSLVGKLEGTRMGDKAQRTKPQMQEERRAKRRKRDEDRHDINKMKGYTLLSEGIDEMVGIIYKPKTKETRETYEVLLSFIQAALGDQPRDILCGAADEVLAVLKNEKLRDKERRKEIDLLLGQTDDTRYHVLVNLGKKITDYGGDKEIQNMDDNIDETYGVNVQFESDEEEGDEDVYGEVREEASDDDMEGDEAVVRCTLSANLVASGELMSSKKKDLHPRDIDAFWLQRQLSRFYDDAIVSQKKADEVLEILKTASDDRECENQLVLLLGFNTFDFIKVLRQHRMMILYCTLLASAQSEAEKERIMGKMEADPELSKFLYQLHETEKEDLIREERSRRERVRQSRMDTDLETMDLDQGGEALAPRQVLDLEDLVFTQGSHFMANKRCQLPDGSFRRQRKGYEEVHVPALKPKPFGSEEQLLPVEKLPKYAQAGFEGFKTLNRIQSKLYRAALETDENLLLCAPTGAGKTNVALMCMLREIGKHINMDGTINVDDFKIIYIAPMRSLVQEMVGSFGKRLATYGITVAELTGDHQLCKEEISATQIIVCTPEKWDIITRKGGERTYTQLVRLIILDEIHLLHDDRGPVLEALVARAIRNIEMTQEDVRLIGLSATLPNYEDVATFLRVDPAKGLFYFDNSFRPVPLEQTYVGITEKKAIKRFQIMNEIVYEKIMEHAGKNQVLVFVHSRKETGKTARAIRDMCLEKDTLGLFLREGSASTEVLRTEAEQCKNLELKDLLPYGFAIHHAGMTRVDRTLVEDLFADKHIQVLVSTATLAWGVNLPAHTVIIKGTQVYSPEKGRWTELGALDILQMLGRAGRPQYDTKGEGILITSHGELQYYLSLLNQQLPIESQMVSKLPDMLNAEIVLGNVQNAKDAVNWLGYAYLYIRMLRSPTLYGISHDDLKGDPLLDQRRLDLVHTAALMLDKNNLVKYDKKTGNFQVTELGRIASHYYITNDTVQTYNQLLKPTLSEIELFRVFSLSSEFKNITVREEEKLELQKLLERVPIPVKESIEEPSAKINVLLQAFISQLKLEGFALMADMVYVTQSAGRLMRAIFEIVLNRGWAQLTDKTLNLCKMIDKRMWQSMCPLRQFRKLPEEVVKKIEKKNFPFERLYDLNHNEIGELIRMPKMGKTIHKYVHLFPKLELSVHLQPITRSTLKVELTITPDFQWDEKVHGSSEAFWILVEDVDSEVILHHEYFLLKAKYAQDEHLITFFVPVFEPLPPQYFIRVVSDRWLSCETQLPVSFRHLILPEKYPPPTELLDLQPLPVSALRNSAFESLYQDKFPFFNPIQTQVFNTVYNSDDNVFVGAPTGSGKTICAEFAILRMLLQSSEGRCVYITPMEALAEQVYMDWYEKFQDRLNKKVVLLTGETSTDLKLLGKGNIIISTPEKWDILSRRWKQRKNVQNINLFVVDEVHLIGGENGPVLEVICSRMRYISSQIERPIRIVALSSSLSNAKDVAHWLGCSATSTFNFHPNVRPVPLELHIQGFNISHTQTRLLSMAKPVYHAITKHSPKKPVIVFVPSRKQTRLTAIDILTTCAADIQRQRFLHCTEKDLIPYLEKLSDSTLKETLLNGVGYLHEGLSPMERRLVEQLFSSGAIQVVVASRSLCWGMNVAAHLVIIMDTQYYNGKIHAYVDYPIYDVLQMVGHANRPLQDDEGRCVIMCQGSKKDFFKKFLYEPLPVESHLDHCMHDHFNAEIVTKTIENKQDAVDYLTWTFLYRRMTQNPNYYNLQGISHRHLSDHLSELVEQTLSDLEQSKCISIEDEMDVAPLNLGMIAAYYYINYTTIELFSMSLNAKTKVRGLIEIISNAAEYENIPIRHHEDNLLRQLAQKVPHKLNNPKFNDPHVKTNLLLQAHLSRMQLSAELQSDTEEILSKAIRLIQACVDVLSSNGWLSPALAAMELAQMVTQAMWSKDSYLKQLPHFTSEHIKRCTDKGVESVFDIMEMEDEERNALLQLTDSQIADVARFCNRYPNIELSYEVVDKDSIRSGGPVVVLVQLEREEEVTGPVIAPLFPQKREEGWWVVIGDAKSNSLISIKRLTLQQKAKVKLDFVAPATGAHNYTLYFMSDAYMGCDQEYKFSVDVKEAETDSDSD
Tyrosine-protein kinase Yes, sequence (P07947 whole entry): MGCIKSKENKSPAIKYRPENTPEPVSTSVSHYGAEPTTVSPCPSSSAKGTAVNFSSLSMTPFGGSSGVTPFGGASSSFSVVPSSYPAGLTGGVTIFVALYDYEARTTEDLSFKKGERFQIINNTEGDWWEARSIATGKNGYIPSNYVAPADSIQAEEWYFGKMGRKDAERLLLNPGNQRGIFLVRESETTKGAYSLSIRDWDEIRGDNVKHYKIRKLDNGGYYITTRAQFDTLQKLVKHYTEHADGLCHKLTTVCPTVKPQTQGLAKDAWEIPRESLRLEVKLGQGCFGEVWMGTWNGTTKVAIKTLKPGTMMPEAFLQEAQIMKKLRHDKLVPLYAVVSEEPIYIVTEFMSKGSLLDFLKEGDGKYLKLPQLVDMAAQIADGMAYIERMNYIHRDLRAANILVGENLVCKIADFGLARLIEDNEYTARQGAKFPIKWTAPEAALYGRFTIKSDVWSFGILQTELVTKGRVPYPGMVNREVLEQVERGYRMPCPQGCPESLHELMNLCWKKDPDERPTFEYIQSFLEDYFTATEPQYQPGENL
Mitotic checkpoint serine/threonine-protein kinase BUB1, sequence (O43683 whole entry): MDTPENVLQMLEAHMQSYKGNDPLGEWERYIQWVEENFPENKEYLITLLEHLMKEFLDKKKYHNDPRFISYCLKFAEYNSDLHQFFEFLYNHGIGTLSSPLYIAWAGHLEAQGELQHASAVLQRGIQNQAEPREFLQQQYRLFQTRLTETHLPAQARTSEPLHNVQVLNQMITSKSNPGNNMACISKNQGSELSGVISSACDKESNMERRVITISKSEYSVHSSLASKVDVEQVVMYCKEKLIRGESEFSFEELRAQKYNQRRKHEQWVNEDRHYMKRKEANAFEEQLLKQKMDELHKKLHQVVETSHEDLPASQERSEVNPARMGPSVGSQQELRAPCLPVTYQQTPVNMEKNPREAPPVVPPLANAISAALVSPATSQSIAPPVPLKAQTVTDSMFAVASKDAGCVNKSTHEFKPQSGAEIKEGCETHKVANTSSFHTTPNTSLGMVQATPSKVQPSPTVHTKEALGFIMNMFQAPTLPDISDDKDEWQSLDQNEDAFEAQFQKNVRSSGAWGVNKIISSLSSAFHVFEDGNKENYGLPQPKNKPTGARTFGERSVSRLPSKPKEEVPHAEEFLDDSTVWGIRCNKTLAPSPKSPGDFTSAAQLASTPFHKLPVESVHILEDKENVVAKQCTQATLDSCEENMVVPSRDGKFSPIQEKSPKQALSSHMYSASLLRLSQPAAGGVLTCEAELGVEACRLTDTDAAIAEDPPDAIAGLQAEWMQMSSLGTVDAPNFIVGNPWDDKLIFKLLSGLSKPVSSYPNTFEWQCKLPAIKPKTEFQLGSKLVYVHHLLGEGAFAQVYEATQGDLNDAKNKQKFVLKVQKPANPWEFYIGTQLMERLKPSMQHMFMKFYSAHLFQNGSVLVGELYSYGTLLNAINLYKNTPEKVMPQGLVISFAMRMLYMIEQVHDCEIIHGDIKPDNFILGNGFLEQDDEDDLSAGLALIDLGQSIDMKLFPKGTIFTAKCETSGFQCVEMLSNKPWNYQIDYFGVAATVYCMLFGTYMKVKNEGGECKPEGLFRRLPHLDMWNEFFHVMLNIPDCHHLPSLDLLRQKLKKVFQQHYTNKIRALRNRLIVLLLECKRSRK
Phosphatidylethanolamine-binding protein 1, sequence (P30086 whole entry): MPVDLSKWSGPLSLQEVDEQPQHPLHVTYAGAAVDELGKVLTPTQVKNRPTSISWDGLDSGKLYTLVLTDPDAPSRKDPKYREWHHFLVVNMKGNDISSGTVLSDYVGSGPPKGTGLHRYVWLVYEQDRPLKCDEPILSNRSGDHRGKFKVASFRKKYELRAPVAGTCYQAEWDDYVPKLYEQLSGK
Dual specificity mitogen-activated protein kinase kinase 2, sequence (P36507 whole entry): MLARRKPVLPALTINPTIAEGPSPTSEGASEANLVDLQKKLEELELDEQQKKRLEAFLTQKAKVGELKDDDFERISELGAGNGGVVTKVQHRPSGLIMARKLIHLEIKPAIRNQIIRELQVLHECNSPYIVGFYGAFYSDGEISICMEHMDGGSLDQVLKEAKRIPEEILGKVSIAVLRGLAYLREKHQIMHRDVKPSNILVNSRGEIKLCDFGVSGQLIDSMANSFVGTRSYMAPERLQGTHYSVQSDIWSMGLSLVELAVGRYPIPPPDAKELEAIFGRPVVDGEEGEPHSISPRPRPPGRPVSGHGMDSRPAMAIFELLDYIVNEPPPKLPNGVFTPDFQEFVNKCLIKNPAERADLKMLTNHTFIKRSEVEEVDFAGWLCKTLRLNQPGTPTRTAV

| Structure (SMILES) | Kd [1] | Kd [2] | Kd [3] | Kd [4] | Kd [5] | Kd (Focal adhesion kinase 1) | Kd (Activin receptor type-1B) | Kd [6] |
| --- | --- | --- | --- | --- | --- | --- | --- | --- |
| C[C@H]1CNCCCN1S(=O)(=O)c1cccc2cncc(F)c12 | > 30 µM (inactive) | > 30 µM (inactive) | > 30 µM (inactive) | > 30 µM (inactive) | > 30 µM (inactive) | > 30 µM (inactive) | > 30 µM (inactive) | – |
| CCNC(=O)C#Cc1ccc2c(c1)NC(=O)/C2=C(\Nc1ccc(CN(C)C)cc1)c1ccccc1 | 0.094 µM (active) | > 30 µM (inactive) | > 30 µM (inactive) | – | > 30 µM (inactive) | > 30 µM (inactive) | > 30 µM (inactive) | – |
| Nc1ncnc2c1c(-c1cccc(OCc3ccccc3)c1)cn2[C@H]1C[C@@H](CN2CCC2)C1 [AEW-541] | 0.337 µM (active) | > 30 µM (inactive) | > 30 µM (inactive) | 5.76 µM (active) | > 30 µM (inactive) | > 30 µM (inactive) | > 30 µM (inactive) | – |
| COc1cc(Nc2ncc3c(n2)-c2ccc(Cl)cc2C(c2c(F)cccc2OC)=NC3)ccc1C(=O)O [ALISERTIB] | > 30 µM (inactive) | > 30 µM (inactive) | > 30 µM (inactive) | – | > 30 µM (inactive) | – | > 30 µM (inactive) | > 30 µM (inactive) |
| O=C(Nc1c[nH]nc1-c1nc2cc(CN3CCOCC3)ccc2[nH]1)NC1CC1 [AT-9283] | 0.574 µM (active) | – | 0.094 µM (active) | > 30 µM (inactive) | > 30 µM (inactive) | > 30 µM (inactive) | 0.811 µM (active) | > 30 µM (inactive) |
| C=CC(=O)Nc1cc2c(Nc3ccc(F)c(Cl)c3)ncnc2cc1C#CC(C)(C)N1CCN(C)CC1 [AV-412 FREE BASE] | 6.27 µM (active) | > 30 µM (inactive) | > 30 µM (inactive) | > 30 µM (inactive) | > 30 µM (inactive) | > 30 µM (inactive) | > 30 µM (inactive) | – |
| CNC(=O)c1ccccc1Sc1ccc2c(/C=C/c3ccccn3)n[nH]c2c1 [AXITINIB] | – | – | > 30 µM (inactive) | – | > 30 µM (inactive) | – | – | > 30 µM (inactive) |
| NC(=O)Nc1cc(-c2cccc(F)c2)sc1C(=O)N[C@H]1CCCNC1 [AZD-7762] | – | > 30 µM (inactive) | – | 1.22 µM (active) | > 30 µM (inactive) | 0.948 µM (active) | > 30 µM (inactive) | > 30 µM (inactive) |
| Cc1cc(C(=O)NOCCO)c(Nc2ccc(I)cc2F)n(C)c1=O [AZD-8330] | > 30 µM (inactive) | > 30 µM (inactive) | – | – | > 30 µM (inactive) | > 30 µM (inactive) | > 30 µM (inactive) | – |
| Cc1cc(Nc2ncc(Cl)c(Nc3ccccc3S(=O)(=O)C(C)C)n2)c(OC(C)C)cc1C1CCNCC1 [CERITINIB] | > 30 µM (inactive) | > 30 µM (inactive) | > 30 µM (inactive) | > 30 µM (inactive) | > 30 µM (inactive) | – | > 30 µM (inactive) | > 30 µM (inactive) |
| CCS(=O)(=O)N1CCN(c2ccc(Nc3ncc(C(N)=O)c(NC4CC4)n3)cc2)CC1 [Cerdulatinib Hydrochloride] | > 30 µM (inactive) | – | 0.437 µM (active) | > 30 µM (inactive) | > 30 µM (inactive) | > 30 µM (inactive) | > 30 µM (inactive) | – |
| CC(C)(C)c1nc(-c2cccc(NS(=O)(=O)c3c(F)cccc3F)c2F)c(-c2ccnc(N)n2)s1 [DABRAFENIB] | 1.28 µM | – | > 30 µM (inactive) | – | > 30 µM (inactive) | > 30 µM (inactive) | 0.601 µM (active) | > 30 µM (inactive) |
| Cn1cc(C2=C(c3cn(C4CCN(Cc5ccccn5)CC4)c4ccccc34)C(=O)NC2=O)c2ccccc21 [ENZASTAURIN] | – | – | > 30 µM (inactive) | – | > 30 µM (inactive) | – | – | > 30 µM (inactive) |
| C[C@@H](Oc1cc(-n2cnc3ccc(CN4CCN(C)CC4)cc32)sc1C(N)=O)c1ccccc1C(F)(F)F [GSK-461364] | – | – | > 30 µM (inactive) | – | > 30 µM (inactive) | – | – | > 30 µM (inactive) |
| CCn1cc(-c2ccnc3[nH]c(-c4cccc(CN(C)C)c4)cc23)c(-c2ccc(NC(=O)N(C)C)cc2)n1 [GSK-1070916] | > 30 µM (inactive) | > 30 µM (inactive) | > 30 µM (inactive) | > 30 µM (inactive) | > 30 µM (inactive) | > 30 µM (inactive) | 1.21 µM (active) | – |
| COc1ccc(S(=O)(=O)N(C(C)=O)c2ccccc2/C=C/c2cc[n+]([O-])cc2)cc1 [HMN-214] | > 30 µM (inactive) | > 30 µM (inactive) | > 30 µM (inactive) | > 30 µM (inactive) | > 30 µM (inactive) | > 30 µM (inactive) | > 30 µM (inactive) | – |
| CNC(=O)c1nn(C)c2c1C(C)(C)Cc1cnc(Nc3ccc(N4CCN(C)CC4)cc3)nc1-2 [MILCICLIB] | 3.79 µM (active) | > 30 µM (inactive) | – | > 30 µM (inactive) | > 30 µM (inactive) | > 30 µM (inactive) | > 30 µM (inactive) | – |
| Cc1[nH]c(/C=C2\C(=O)Nc3ccccc32)c(C)c1CCC(=O)O [ORANTINIB] | > 30 µM (inactive) | > 30 µM (inactive) | > 30 µM (inactive) | 3.23 µM (active) | > 30 µM (inactive) | – | > 30 µM (inactive) | – |
| NC(=O)c1c(OCc2c(F)cc(Br)cc2F)nsc1NC(=O)NCCCCN1CCCC1 [OSI-632] | 0.881 µM (active) | > 30 µM (inactive) | – | – | > 30 µM (inactive) | – | 0.004 µM (active) | > 30 µM (inactive) |
| CCOc1cc2ncc(C#N)c(Nc3ccc(F)c(Cl)c3)c2cc1NC(=O)/C=C/CN(C)C [PELITINIB] | > 30 µM (inactive) | > 30 µM (inactive) | > 30 µM (inactive) | – | > 30 µM (inactive) | – | > 30 µM (inactive) | > 30 µM (inactive) |
| CC(=O)NCC(=O)N1[C@@H]2CC[C@H]1c1ccc(Nc3ncc(C(F)(F)F)c(NC4CCC4)n3)cc12 [PF-03814735] | > 30 µM (inactive) | – | > 30 µM (inactive) | – | > 30 µM (inactive) | – | > 30 µM (inactive) | – |
| CNC(=O)c1cc(Oc2ccc(NC(=O)Nc3cc(C(C)(C)C)nn3-c3ccc4ncccc4c3)c(F)c2)ccn1 [REBASTINIB] | – | > 30 µM (inactive) | > 30 µM (inactive) | > 30 µM (inactive) | > 30 µM (inactive) | > 30 µM (inactive) | > 30 µM (inactive) | – |
| O=C(NOCCO)c1cc(CN2OCCCC2=O)c(F)c(F)c1Nc1ccc(I)cc1F [RO-4987655] | – | – | – | – | > 30 µM (inactive) | – | – | > 30 µM (inactive) |
| N#CC[C@H](C1CCCC1)n1cc(-c2ncnc3[nH]ccc23)cn1 [RUXOLITINIB] | – | – | > 30 µM (inactive) | – | > 30 µM (inactive) | – | – | > 30 µM (inactive) |
| CN1CCN(CCOc2cc(OC3CCOCC3)c3c(Nc4c(Cl)ccc5c4OCO5)ncnc3c2)CC1 [SARACATINIB] | – | > 30 µM (inactive) | > 30 µM (inactive) | > 30 µM (inactive) | > 30 µM (inactive) | > 30 µM (inactive) | 0.142 µM (active) | – |
